Square brackets hold non-standard residues; d marks the D form. Peptide text beside a SMILES is read from it. * marks the point of attachment. Boc = CC(C)(C)OC(=O)*
Experiments:
rabbit venous thrombosis [1] = conditions: in vivo
cuticle bleeding time = assay: Cuticle Bleeding Time model in rabbits; format: in vivo, rabbit; conditions: 1500 μg/kg+14.85 μg/kg/min
Description: In an ancillary study, a Cuticle Bleeding Time model was used to evaluate the effect of test compounds on bleeding time (BT) measurements in rabbits. The standardized protocol involved anesthesia and catheterization of rabbits as previously described in this Example 43. To measure BT, a toe nail was cut 5 mm from the base of the cuticle with a canine nail trimming device. Time until cessation of bleeding was recorded by wicking the blood on to BT blotting paper in 30 second intervals. Test compound was administered as a bolus followed by infusion regimen. Two BT measurements were obtained prior to administration of test compound and three BT measurements accomplished serially after initiation of steady state infusion of test compound. BT measurements were allowed to continue for up to 30 minutes at which time it was stopped with application of silver nitrate. Blood samples were obtained just prior to all BT measurements and processed for measurement of hematological and coagulation parameters.

[2] = rabbit, in vivo, iv, 2 mg/kg
in vivo = conditions: rabbit, iv
[3] = system: coagulation parameters (aPTT, PT, FIB)
rabbit venous thrombosis [4] = assay: Rabbit deep vein thrombosis model; conditions: bolus + infusion, doses 200 + 1.98 to 1500 + 14.85 μg/kg + μg/kg/min

Row | Structure (SMILES) | effects on hematological parameters as compared to saline controls (rabbit venous thrombosis [1]) | changes in hematological parameters from pre to post administration (cuticle bleeding time; cuticle BT experiments) | increase of cuticle BT from pre-administration baseline (cuticle bleeding time; rabbits, n=4, ±1.26) [fold] | peak plasma concentration by HPLC [2] [µg/mL] | half-life (in vivo) [h] | Vd (in vivo; 2 mg/kg) [L/kg] | changes in hematological parameters as compared to saline controls ([3]; rabbit, in vivo, iv, 2 mg/kg) | antithrombotic efficacy in the rabbit venous thrombosis model (rabbit venous thrombosis [4]) | FIB prolongation ([3]; rabbits, I.V. bolus 2.0 mg/kg) [fold] | PT prolongation ([3]; rabbits, I.V. bolus 2.0 mg/kg) [fold] | aPTT prolongation as compared to pretreatment values ([3]; rabbits, I.V. bolus 2.0 mg/kg) [fold] | anticoagulative effect ([3]; rabbits, I.V. bolus 2.0 mg/kg)
1 | CC(C)(C)OC(=O)N[C@H](CCCN=C(N)N)C(=O)NCC(=O)N[C@H](C=O)CCCN=C(N)N [Boc--D-Arg--Gly--Arg--H, Boc-D-Arg-Gly-Arg-H] (Boc-[dR]-Gly-Arg-aldehyde) | no significant effects | no significant changes | 2.14 | 3.78 | 1.18 | 0.118 | no significant changes |  |  |  |  | 
2 | CC(C)(C)OC(=O)N[C@H](CCCNC(=N)N)C(=O)NCC(=O)N[C@H](C=O)CCCNC(=N)N [Boc--D-Arg--Gly--Arg--H, Boc-D-Arg-Gly-Arg-H] (Boc-[dR]-Gly-Arg-aldehyde) |  |  |  |  |  |  |  | antithrombotic efficacy at the higher doses evaluated | 1.07 | 1.15 | 2.45 | plasma concentration-dependent anticoagulative effect
